# Experimental data taken from ChEMBL document CHEMBL1152028, “The synthesis of 8,8-disubstituted tricyclic analogs of artemisinin” (Bioorg Med Chem Lett, 1997).
# Tested on: Plasmodium falciparum
# Test: In vitro inhibition of Plasmodium falciparum W2
# Assay type: functional, organism-based
row,Compound,IC50
1,C[C@@]12CC[C@H]3CC[C@](C)(c4ccccc4)C[C@]3(CO1)OO2,0.013 µg/mL
2,C[C@@]12CC[C@H]3CC[C@@](C)(c4ccccc4)C[C@]3(CO1)OO2,0.132 µg/mL
3,C[C@@H]1CC[C@H]2[C@@H](C)C(=O)O[C@@H]3O[C@@]4(C)CC[C@@H]1[C@]32OO4 [ARTEMISININ],0.0042 µg/mL
